Values after ≈ are worked out from the molar mass of the structure shown.
What was measured:
Format in all cases: cell-based
[1] = tested on: panel of gram-positive bacteria; assay: MIC by broth microdilution (NCCLS) of IsoB0 and reference compounds (Table 44)
Experimental: Müller Hinton broth (Difco Laboratories, Detroit, Mich., USA) adjusted with CaCl2 and MgCl2 to a final concentrations of 20 mg/L and 10 mg/L respectively.
The microorganisms used are reference standard strains from the American Type Culture Collection (ATCC, Rockville, USA), Smith Kline and French Laboratories (SKF) and the Upjohn Company (UC, Kalamazoo, Mich., USA).
(§1) MICs were determined by the broth microdilution methodology following the standard NCCLS procedure, with or without 30% bovine serum, using bacterial inocula of approximately 5×10^5 CFU/mL. Tests were read after 20-24 h incubation at 35° C.

[2] = tested on: Escherichia coli, Proteus vulgaris, Pseudomonas aeruginosas; assay: MIC by broth microdilution (NCCLS) of IsoB0 and reference compounds (Table 44), non-gram-positive bacterial strains
Experimental: as §1

[3] = tested on: Candida albicans SKF 2270; assay: MIC by broth microdilution (NCCLS) (Tables 42, 44)
[4] = tested on: gram-negative bacteria; assay: MIC by broth microdilution (NCCLS) (Table 42)
Experimental: (§2) Before dissolution, each sample was analyzed by HPLC and quantified.
(§3) The microorganisms used were reference strains obtained from the American Type Culture Collection (ATCC) (Rockville, Md.), SmithKline and French Laboratories (SKF), and the Upjohn Company (UC) (Kalamazoo, Mich.).
(§4) MICs were determined by the broth microdilution methodology following the standard NCCLS procedure (NCCLS Document M7-A6, Vol. 23, No. 2, “Methods for dilution antimicrobial susceptibility tests for bacteria that grow aerobically.” Approved Guideline. January 2003, which can be herein incorporated by reference in its entirety), with or without 30% adult bovine serum (BS) (PAA Laboratories GMBH, Haidmannweg Pasching Austria), using bacterial innocula at approximately 5×10^5 CFU/ml. The media employed included cation-adjusted Müller Hinton broth (Difco Laboratories, Detroit, Mich.) that was used that was adjusted with CaCl2 and MgCl2 to a final concentration of 20 mg/L and 10 mg/L, respectively. Tests were read following 20-24 hours of incubation at 35° C.

[5] = tested on: gram positive bacteria; assay: MIC by broth microdilution (NCCLS), with or without 30% bovine serum (Table 42)
Experimental: as §2, §3, §4

[6] = E. faecalis ATCC29212 ref. strain
[7] = Enterococcus faecalis ATCC 7080
[8] = S. aureus ATCC 29213 ref. strain
[9] = Staphylococcus aureus Smith ATCC 19636
[10] = Streptococcus pyogenes SKF13400
[11] = Pseudomonas aeruginosas ATCC 10145
[12] = Candida albicans SKF2270 (Table 44)
[13] = Candida albicans SKF 2270 (Table 42)
[14] = Streptococcus pyrogenes SKF 13400

SMILES | MIC [3, 13] | MIC ([4]; E. coli ATCC25922 ref. strain) | MIC ([4]; Escherichia coli SKF 12140) | MIC ([4]; Proteus vulgaris ATCC 881) | MIC [4, 11] | MIC ([5]; Bacillus subtilis ATCC 6633) | MIC [5, 6] | MIC [5, 7] | MIC [5, 8] | MIC ([5]; S. aureus Smith + 30% BS) | MIC ([5]; S. epidermidis ATCC 12228) | MIC ([5]; S. pneumoniae Felton UC41) | MIC [5, 9] | MIC [5, 14] | other results
CC1(C)S[C@@H]2[C@H](NC(=O)Cc3ccccc3)C(=O)N2[C@H]1C(=O)O [Pen. G] |  |  |  |  |  |  |  |  |  |  |  |  |  |  | MIC ([1]; Bacillus subtilis ATCC 6633): ≦0.03 mg/L; MIC [1, 6]: 4 µg/mL (≈ 12 µM); MIC [1, 7]: 32 µg/mL (≈ 95.7 µM); MIC [1, 8]: 8 µg/mL (≈ 23.9 µM); MIC ([1]; S. aureus Smith + 30% BS): 0.06 µg/mL; MIC ([1]; S. epidermidis ATCC 12228): >32 µg/mL; MIC ([1]; S. pneumoniae Felton UC41): ≦0.03 mg/L; MIC [1, 9]: 0.06 µg/mL (≈ 0.179 µM); MIC [1, 10]: ≦0.03 mg/L; MIC ([2]; E. coli ATCC25922 ref. strain): >32 µg/mL; MIC ([2]; Escherichia coli SKF 12140): >32 µg/mL; MIC ([2]; Proteus vulgaris ATCC 881): >32 µg/mL; MIC [2, 11]: >32 µg/mL; MIC [3, 12]: >32 µg/mL
C[C@@H]1[C@H](O)[C@@H](C)/C=C/C=C/C=C/C=C/C=C/C=C/C=C/[C@H](O[C@@H]2O[C@H](C)[C@@H](O)[C@H](N)[C@@H]2O)C[C@@H]2O[C@](O)(C[C@@H](O)C[C@@H](O)[C@H](O)CC[C@@H](O)C[C@@H](O)CC(=O)O[C@H]1C)C[C@H](O)[C@H]2C(=O)O [Amph. B] |  |  |  |  |  |  |  |  |  |  |  |  |  |  | MIC ([1]; Bacillus subtilis ATCC 6633): >64 µg/mL; MIC [1, 6]: >64 µg/mL; MIC [1, 7]: >64 µg/mL; MIC [1, 8]: >64 µg/mL; MIC ([1]; S. aureus Smith + 30% BS): >64 µg/mL; MIC ([1]; S. epidermidis ATCC 12228): >64 µg/mL; MIC ([1]; S. pneumoniae Felton UC41): >64 µg/mL; MIC [1, 9]: >64 µg/mL; MIC [1, 10]: 32 µg/mL (≈ 34.6 µM); MIC ([2]; E. coli ATCC25922 ref. strain): >64 µg/mL; MIC ([2]; Escherichia coli SKF 12140): >64 µg/mL; MIC ([2]; Proteus vulgaris ATCC 881): >64 µg/mL; MIC [2, 11]: >64 µg/mL; MIC [3, 12]: 0.125 µg/mL (≈ 0.135 µM)
CC1(C)S[C@@H]2[C@H](NC(=O)Cc3ccccc3)C(=O)N2[C@H]1C(=O)O [Penicillin G] | >32 µg/mL | >32 µg/mL | >32 µg/mL | >32 µg/mL | >32 µg/mL | ≦0.03 mg/L | 4 µg/mL (≈ 12 µM) | 32 µg/mL (≈ 95.7 µM) | 8 µg/mL (≈ 23.9 µM) | 0.06 µg/mL | >32 µg/mL | ≦0.03 mg/L | 0.06 µg/mL (≈ 0.179 µM) | ≦0.03 mg/L | 
CN[C@H]1C(=O)N[C@@H]2Cc3ccc(cc3)Oc3cc4cc(c3O[C@@H]3O[C@H](C(=O)O)[C@@H](O)[C@H](O)[C@H]3NC(=O)CCCCCCCC(C)C)Oc3ccc(cc3Cl)[C@@H](O)[C@@H]3NC(=O)[C@H](NC(=O)[C@@H]4NC(=O)[C@@H](NC2=O)c2cc(cc(O)c2Cl)Oc2cc1ccc2O)c1ccc(O)c(c1)-c1c(O[C@H]2O[C@H](CO)[C@@H](O)[C@H](O)[C@@H]2O)cc(O)cc1[C@@H](C(=O)NCCCN(C)C)NC3=O [Composition A0] | >64 µg/mL | >64 µg/mL | >64 µg/mL | >64 µg/mL | >64 µg/mL | ≦0.06 mg/L | ≦0.06 mg/L | 0.125 µg/mL (≈ 0.0693 µM) | 0.125 µg/mL (≈ 0.0693 µM) | 1 µg/mL | 0.125 µg/mL (≈ 0.0693 µM) | 0.125 µg/mL (≈ 0.0693 µM) | 0.125 µg/mL (≈ 0.0693 µM) | 0.015 µg/mL (≈ 0.00832 µM) | 
CC(C)CCCCCCCCC(=O)N[C@H]1[C@H](Oc2c3cc4cc2Oc2ccc(cc2Cl)[C@@H](O)[C@@H]2NC(=O)[C@H](NC(=O)[C@@H]4NC(=O)[C@H]4NC(=O)[C@@H](Cc5ccc(cc5)O3)NC(=O)[C@H](N(C)C)c3ccc(O)c(c3)Oc3cc(O)c(Cl)c4c3)c3ccc(O)c(c3)-c3c(O[C@H]4O[C@H](CO)[C@@H](O)[C@H](O)[C@@H]4O)cc(O)cc3[C@@H](C(=O)NCCCN(C)C)NC2=O)O[C@H](C(=O)O)[C@@H](O)[C@@H]1O [Composition B2, N^15,N^15-dimethyl dalbavancin B0] |  |  |  |  |  |  |  |  |  |  |  |  |  |  | MIC range ([4]; representative panel of gram-negative bacteria): 16 to 32 µg/mL; activity across the range of gram-positive bacteria [5]: comparable to or greater than the activity of B0
CN[C@H]1C(=O)N[C@@H]2Cc3ccc(cc3)Oc3cc4cc(c3O[C@@H]3O[C@H](C(=O)O)[C@@H](O)[C@H](O)[C@H]3NC(=O)CCCCCCCCC(C)C)Oc3ccc(cc3Cl)[C@@H](O)[C@@H]3NC(=O)[C@H](NC(=O)[C@@H]4NC(=O)[C@@H](NC2=O)c2cc(cc(O)c2Cl)Oc2cc1ccc2O)c1ccc(O)c(c1)-c1c(O[C@H]2O[C@H](CO)[C@@H](O)[C@H](O)[C@@H]2O)cc(O)cc1[C@@H](C(=O)NCCCN(C)C)NC3=O [Composition B0, ristomycin A aglycone, 5,31-dichloro-38-de(methoxycarbonyl)-7-demethyl-19-deoxy-56-O-(2-deoxy-2-((10-methyl-1-oxoundecyl)amino)-beta-D-glucopyranuronosyl)-38-(((3-(dimethylamino)propyl)amino)-carbonyl)-42-O-alpha-D-mannopyranosyl-N^15-methyl-] | >64 µg/mL | >64 µg/mL | >64 µg/mL | >64 µg/mL | >64 µg/mL | ≦0.06 mg/L | 0.125 µg/mL (≈ 0.0688 µM) | 0.125 µg/mL (≈ 0.0688 µM) | 0.125 µg/mL (≈ 0.0688 µM) | 2 µg/mL | ≦0.06 mg/L | ≦0.06 mg/L | 0.25 µg/mL (≈ 0.138 µM) | ≦0.06 mg/L | 
CCCCCCCCCCCC(=O)N[C@H]1[C@H](Oc2c3cc4cc2Oc2ccc(cc2Cl)[C@@H](O)[C@@H]2NC(=O)[C@H](NC(=O)[C@@H]4NC(=O)[C@H]4NC(=O)[C@@H](Cc5ccc(cc5)O3)NC(=O)[C@H](NC)c3ccc(O)c(c3)Oc3cc(O)c(Cl)c4c3)c3ccc(O)c(c3)-c3c(O[C@H]4O[C@H](CO)[C@@H](O)[C@H](O)[C@@H]4O)cc(O)cc3[C@@H](C(=O)NCCCN(C)C)NC2=O)O[C@H](C(=O)O)[C@@H](O)[C@@H]1O [Composition B1] | >64 µg/mL | >64 µg/mL | >64 µg/mL | >64 µg/mL | >64 µg/mL | ≦0.06 mg/L | 0.125 µg/mL (≈ 0.0688 µM) | 0.125 µg/mL (≈ 0.0688 µM) | 0.125 µg/mL (≈ 0.0688 µM) | 2 µg/mL | ≦0.06 mg/L | ≦0.06 mg/L | 0.125 µg/mL (≈ 0.0688 µM) | ≦0.06 mg/L | 
C[C@@H]1[C@H](O)[C@@H](C)/C=C/C=C/C=C/C=C/C=C/C=C/C=C/[C@H](O[C@@H]2O[C@H](C)[C@@H](O)[C@H](N)[C@@H]2O)C[C@@H]2O[C@](O)(C[C@@H](O)C[C@@H](O)[C@H](O)CC[C@@H](O)C[C@@H](O)CC(=O)O[C@H]1C)C[C@H](O)[C@H]2C(=O)O [Amphotericin B] | 0.125 µg/mL (≈ 0.135 µM) | >64 µg/mL | >64 µg/mL | >64 µg/mL | >64 µg/mL | >64 µg/mL | >64 µg/mL | >64 µg/mL | >64 µg/mL | >64 µg/mL | >64 µg/mL | >64 µg/mL | >64 µg/mL | 32 µg/mL (≈ 34.6 µM) | 

— patent US8143212B2 (Vicuron Pharmaceuticals Inc., priority 2002, dated 2012)
